From ChEMBL document CHEMBL1151628, “Antibacterial constituents of the diatom Navicula delognei” (1984)
Active and inactive are the calls of the source. The rule behind the calls is not given here.

What was measured:
[1] = tested on: Escherichia coli; assay: Antimicrobial activity against Escherichia coli ATCC 25922 at 0.5 mg/disk by disk diffusion assay; type: functional, organism-based
[2] = tested on: Salmonella typhimurium; assay: Antimicrobial activity against Salmonella Typhimurium ATCC 14028 at 0.5 mg/disk by disk diffusion assay; type: functional, Salmonella enterica subsp. enterica serovar Typhimurium
[3] = tested on: Proteus vulgaris; assay: Antimicrobial activity against Proteus vulgaris ATCC 13315 at 0.5 mg/disk by disk diffusion assay; type: functional
[4] = tested on: Staphylococcus aureus; assay: Antimicrobial activity against Staphylococcus aureus ATCC 25923 at 0.5 mg/disk by disk diffusion assay; type: functional
[5] = tested on: Staphylococcus epidermidis; assay: Antimicrobial activity against Staphylococcus epidermidis ATCC 12228 at 0.5 mg/disk by disk diffusion assay; type: functional
[6] = tested on: Serratia marcescens; assay: Antimicrobial activity against Serratia marcescens ATCC 8100 at 0.1 mg/disk by disk diffusion assay; type: functional
[7] = tested on: Enterobacter cloacae; assay: Antimicrobial activity against Enterobacter cloacae ATCC 23355 at 0.1 mg/disk by disk diffusion assay; type: functional
[8] = tested on: Salmonella typhimurium; assay: Antimicrobial activity against Salmonella Typhimurium ATCC 14028 at 0.1 mg/disk by disk diffusion assay; type: functional, Salmonella enterica subsp. enterica serovar Typhimurium
[9] = tested on: Staphylococcus epidermidis; assay: Antimicrobial activity against Staphylococcus epidermidis ATCC 12228 at 0.1 mg/disk by disk diffusion assay; type: functional
[10] = tested on: Staphylococcus aureus; assay: Antimicrobial activity against Staphylococcus aureus ATCC 25923 at 0.1 mg/disk by disk diffusion assay; type: functional
[11] = tested on: Proteus vulgaris; assay: Antimicrobial activity against Proteus vulgaris ATCC 13315 at 0.1 mg/disk by disk diffusion assay; type: functional
[12] = tested on: Klebsiella pneumoniae; assay: Antimicrobial activity against Klebsiella pneumoniae ATCC 13883 at 0.1 mg/disk by disk diffusion assay; type: functional

SMILES | Activity [1] | inhibition zone (IZ) [2] [mm] | Activity [3] | inhibition zone (IZ) [4] [mm] | inhibition zone (IZ) [5] [mm] | also measured
C=CC/C=C\C/C=C\C/C=C\CCCCC(=O)O | Active | >4 | Active | >2 | >2 | 
O=C(N[C@H](CO)[C@H](O)c1ccc([N+](=O)[O-])cc1)C(Cl)Cl [CHLORAMPHENICOL] |  |  |  |  |  | inhibition zone (IZ) [6]: >4 mm
CC1(C)S[C@@H]2[C@H](NC(=O)[C@H](N)c3ccccc3)C(=O)N2[C@H]1C(=O)O [AMPICILLIN] |  |  |  |  |  | inhibition zone (IZ) [7]: >4 mm; inhibition zone (IZ) [8]: >4 mm; inhibition zone (IZ) [9]: >4 mm; inhibition zone (IZ) [10]: >4 mm
CC/C=C\C/C=C\C/C=C\C/C=C\C/C=C\CCCC(=O)OC/C=C(\C)CCCC(C)CCCC(C)CCCC(C)C (stereo unspecified) |  | >2 | Active | >4 | >2 | 
CN(C)[C@@H]1C(O)=C(C(N)=O)C(=O)[C@@]2(O)C(O)=C3C(=O)c4c(O)cccc4[C@@](C)(O)[C@H]3C[C@@H]12 [TETRACYCLINE] |  |  |  |  |  | inhibition zone (IZ) [11]: >4 mm; inhibition zone (IZ) [12]: >4 mm
CC/C=C\C/C=C\C/C=C\C/C=C\CCCCC(=O)O | Active | >2 |  | >2 | >2 | inhibition zone (IZ) [3]: >2 mm
